Laboratory results as given in ChEMBL document CHEMBL1201862, “PubChem BioAssay data set” (2004).
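Cells were grown in 96-well plates and exposed to each compound for 48 hours at five concentrations; endpoints were interpolated linearly between bracketing concentrations, or set to the highest concentration if not reached. GI50 = concentration required for 50% inhibition of growth.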 Calls of active or inactive are those of the source. No stated cut-off is given here; in the data, active = GI50 up to about 1.1 µM and inactive = higher.

Assays:
Test in all cases: NCI anticancer screen, dose series, 48 h
COLO 205 = tested on: COLO 205
EKVX = tested on: EKVX
HCC 2998 = tested on: HCC 2998
HCT-15 = tested on: HCT-15
MOLT-4 = tested on: MOLT-4
Malme-3M = tested on: Malme-3M
NCI-H226 = tested on: NCI-H226
NCI-H460 = tested on: NCI-H460
NCI-H522 = tested on: NCI-H522
OVCAR-4 = tested on: OVCAR-4
OVCAR-5 = tested on: OVCAR-5
RPMI-8226 = tested on: RPMI-8226
SF-268 = tested on: SF-268
SF-539 = tested on: SF-539
SK-MEL-2 = tested on: SK-MEL-2
UACC-257 = tested on: UACC-257
UACC-62 = tested on: UACC-62
UO-31 = tested on: UO-31

Compound | GI50 (COLO 205) | GI50 (EKVX) | GI50 (HCC 2998) | GI50 (HCT-15) [µM] | GI50 (MOLT-4) | GI50 (Malme-3M) | GI50 (NCI-H226) | GI50 (NCI-H460) | GI50 (NCI-H522) | GI50 (OVCAR-4) | GI50 (OVCAR-5) | GI50 (RPMI-8226) | GI50 (SF-268) | GI50 (SF-539) | GI50 (SK-MEL-2) | GI50 (UACC-257) | GI50 (UACC-62) | GI50 (UO-31)
CC(=O)OC1C(=O)C(O)C(C)OC1O[C@@H]1C[C@@]2(C)[C@@H]3CC=C4[C@@H](C[C@H](O)C(=O)C4(C)C)[C@]3(C)C(=O)C[C@]2(C)[C@H]1[C@@](C)(O)C(=O)/C=C/C(C)(C)O (stereo partly drawn) | 0.885 µM (active) | 3.86 µM (inactive) | 2.27 µM (inactive) | 1.08 | 3.51 µM (inactive) | 1.04 µM (active) | 0.693 µM (active) | 1.98 µM (inactive) | 0.975 µM (active) | 1.02 µM (active) | 7.29 µM (inactive) | 0.44 µM (active) | 0.843 µM (active) | 0.675 µM (active) | 0.748 µM (active) | 0.91 µM (active) | 3.15 µM (inactive) | 3.18 µM (inactive)
CN(/N=C/c1ccnc2ccccc12)c1c([N+](=O)[O-])cc([N+](=O)[O-])cc1[N+](=O)[O-] | > 100 µM (inactive) | 47.3 µM (inactive) | > 100 µM (inactive) | 44.5 | 28.1 µM (inactive) | 31.5 µM (inactive) | 71.4 µM (inactive) | > 100 µM (inactive) | 27.6 µM (inactive) | 53.7 µM (inactive) | > 100 µM (inactive) | 26.6 µM (inactive) | 61.2 µM (inactive) | > 100 µM (inactive) | 24.4 µM (inactive) | > 100 µM (inactive) | > 100 µM (inactive) | 26.7 µM (inactive)
C[C@]12CCc3nonc3C1CC[C@@H]1C2CC[C@@]2(C)C1CC[C@@H]2O (stereo partly drawn) | > 100 µM (inactive) | > 100 µM (inactive) | > 100 µM (inactive) | > 100 | > 100 µM (inactive) | > 100 µM (inactive) | > 100 µM (inactive) | > 100 µM (inactive) | > 100 µM (inactive) | > 100 µM (inactive) | > 100 µM (inactive) | > 100 µM (inactive) | > 100 µM (inactive) | > 100 µM (inactive) | > 100 µM (inactive) | > 100 µM (inactive) | > 100 µM (inactive) | > 100 µM (inactive)
CN1C(=O)CSC1=S [3-METHYL-RHODANINE] | > 100 µM (inactive) | – | – | > 100 | > 100 µM (inactive) | > 100 µM (inactive) | > 100 µM (inactive) | > 100 µM (inactive) | > 100 µM (inactive) | > 100 µM (inactive) | > 100 µM (inactive) | > 100 µM (inactive) | > 100 µM (inactive) | > 100 µM (inactive) | > 100 µM (inactive) | > 100 µM (inactive) | > 100 µM (inactive) | > 100 µM (inactive)
CC(=O)O[C@H]1CC[C@@]2(C)C(=CC[C@@H]3C2CC[C@]2(C)Nc4oncc4CC32)C1 (stereo partly drawn) | – | > 100 µM (inactive) | > 100 µM (inactive) | 33 | 10.7 µM (inactive) | 25.3 µM (inactive) | 15 µM (inactive) | 20.3 µM (inactive) | – | 16.8 µM (inactive) | > 100 µM (inactive) | 16.9 µM (inactive) | – | 44.9 µM (inactive) | 44.5 µM (inactive) | 31.7 µM (inactive) | 27.5 µM (inactive) | 18.3 µM (inactive)
FC(F)(F)c1nc(Br)[nH]c1C(F)(F)F | > 100 µM (inactive) | > 100 µM (inactive) | 49.9 µM (inactive) | > 100 | > 100 µM (inactive) | > 100 µM (inactive) | 51.9 µM (inactive) | > 100 µM (inactive) | – | > 100 µM (inactive) | > 100 µM (inactive) | 51.3 µM (inactive) | > 100 µM (inactive) | > 100 µM (inactive) | 38.4 µM (inactive) | > 100 µM (inactive) | 37.6 µM (inactive) | > 100 µM (inactive)
COc1cc([C@@H]2OC(=O)C3C2C(=O)O[C@H]3c2ccc(O)c(OC)c2)ccc1O (stereo partly drawn) | > 100 µM (inactive) | – | > 100 µM (inactive) | > 100 | > 100 µM (inactive) | > 100 µM (inactive) | > 100 µM (inactive) | > 100 µM (inactive) | – | > 100 µM (inactive) | > 100 µM (inactive) | > 100 µM (inactive) | > 100 µM (inactive) | > 100 µM (inactive) | – | > 100 µM (inactive) | > 100 µM (inactive) | > 100 µM (inactive)
C/C(COc1ccccc1)=N\NC(N)=S | > 100 µM (inactive) | > 100 µM (inactive) | > 100 µM (inactive) | > 100 | > 100 µM (inactive) | > 100 µM (inactive) | > 100 µM (inactive) | > 10 µM (inactive) | – | > 100 µM (inactive) | > 100 µM (inactive) | > 100 µM (inactive) | > 100 µM (inactive) | 90.4 µM (inactive) | > 100 µM (inactive) | > 100 µM (inactive) | > 100 µM (inactive) | > 100 µM (inactive)
NC(=O)c1ccccc1NC(=O)C(=O)Cc1nc2ccccc2nc1O | > 100 µM (inactive) | > 100 µM (inactive) | > 100 µM (inactive) | > 100 | > 100 µM (inactive) | > 100 µM (inactive) | – | > 100 µM (inactive) | > 100 µM (inactive) | > 100 µM (inactive) | 96.2 µM (inactive) | > 100 µM (inactive) | > 100 µM (inactive) | 48.5 µM (inactive) | > 100 µM (inactive) | > 100 µM (inactive) | > 100 µM (inactive) | > 100 µM (inactive)
Cc1ccc(NC(=O)CCC(=O)C2CC(=O)CCC2=O)cc1C (stereo not drawn) | > 100 µM (inactive) | > 100 µM (inactive) | > 100 µM (inactive) | > 100 | > 100 µM (inactive) | > 100 µM (inactive) | > 100 µM (inactive) | > 100 µM (inactive) | – | > 100 µM (inactive) | > 100 µM (inactive) | – | > 100 µM (inactive) | > 100 µM (inactive) | > 100 µM (inactive) | > 100 µM (inactive) | > 100 µM (inactive) | > 100 µM (inactive)
O=C(N/N=C(/CCN1CCCC1)CC(c1ccccc1)c1c(O)c2ccccc2oc1=O)c1ccncc1 (stereo not drawn) | – | > 100 µM (inactive) | 0.171 µM (active) | > 100 | – | 93.3 µM (inactive) | > 100 µM (inactive) | > 100 µM (inactive) | 72.6 µM (inactive) | > 100 µM (inactive) | > 100 µM (inactive) | 45.1 µM (inactive) | > 100 µM (inactive) | > 100 µM (inactive) | > 100 µM (inactive) | > 100 µM (inactive) | > 100 µM (inactive) | > 100 µM (inactive)
COC(=O)/C=C(C)/C=C/c1cc(C(C)=O)c(C)o1 | – | 51.9 µM (inactive) | > 100 µM (inactive) | > 100 | 62.5 µM (inactive) | > 100 µM (inactive) | – | > 100 µM (inactive) | > 100 µM (inactive) | 94.2 µM (inactive) | 78.7 µM (inactive) | 54.7 µM (inactive) | > 100 µM (inactive) | > 100 µM (inactive) | > 100 µM (inactive) | > 100 µM (inactive) | 82 µM (inactive) | 86.9 µM (inactive)
COC(=O)C(C(=O)C(=O)Nc1cccc([N+](=O)[O-])c1)c1nc2ccc([N+](=O)[O-])cc2nc1O (stereo not drawn) | > 100 µM (inactive) | > 100 µM (inactive) | > 100 µM (inactive) | > 100 | > 100 µM (inactive) | > 100 µM (inactive) | > 100 µM (inactive) | > 100 µM (inactive) | > 100 µM (inactive) | > 100 µM (inactive) | > 100 µM (inactive) | – | > 100 µM (inactive) | > 100 µM (inactive) | > 100 µM (inactive) | > 100 µM (inactive) | > 100 µM (inactive) | > 100 µM (inactive)
C=CCCCCCCCC(O)C1C[C@H](O)C(CCCCC)O1 (stereo partly drawn) | 18.5 µM (inactive) | 19.5 µM (inactive) | 17.9 µM (inactive) | 21.5 | 17.7 µM (inactive) | 17.3 µM (inactive) | 13.4 µM (inactive) | 18.9 µM (inactive) | 17.1 µM (inactive) | – | – | 17.1 µM (inactive) | – | 15.8 µM (inactive) | – | > 10 µM (inactive) | 15 µM (inactive) | 17.8 µM (inactive)
Cn1cc2ccccc2c1-c1nc(F)nc(Oc2ccc3c(c2)CC[C@@H]2C3CC[C@@]3(C)C2C[C@H](O)[C@@H]3O)n1 (stereo partly drawn) | 17.7 µM (inactive) | 17.7 µM (inactive) | 15.4 µM (inactive) | 12.2 | 5.43 µM (inactive) | 24.8 µM (inactive) | – | 30.9 µM (inactive) | 11.8 µM (inactive) | – | 19.2 µM (inactive) | 16.7 µM (inactive) | 13.1 µM (inactive) | 13.5 µM (inactive) | 13 µM (inactive) | 23.5 µM (inactive) | 17.5 µM (inactive) | 16.4 µM (inactive)
CC(C)C(NCc1c2ccccc2[n+]([O-])c2ccccc12)C(=O)O (stereo not drawn) | > 100 µM (inactive) | > 100 µM (inactive) | > 100 µM (inactive) | 31 | 26.2 µM (inactive) | 92.7 µM (inactive) | 35.4 µM (inactive) | 68.9 µM (inactive) | 34.5 µM (inactive) | 41.1 µM (inactive) | > 100 µM (inactive) | 28.2 µM (inactive) | 32.2 µM (inactive) | – | 81.1 µM (inactive) | > 100 µM (inactive) | 56.6 µM (inactive) | 26.7 µM (inactive)
